US10925283B2, “Microbiocidal phenylamidine derivatives” (SYNGENTA PARTICIPATIONS AG, priority 2016, dated 2021)

Key:
Format in all cases: in vivo
[1] = system: Blumeria graminis f. sp. tritici (Erysiphe graminis f. sp. tritici); assay: Blumeria graminis f. sp. tritici / wheat / leaf disc preventative (powdery mildew on wheat); conditions: foliar, wheat leaf segments cv. Kanzler, inoculated 1 day after application, assessed 6-8 days after application, read-out: control of Blumeria graminis f. sp. tritici (percent disease control compared to untreated)
Outline: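 Wheat cv. Kanzler leaf segments on agar were sprayed with formulated compound in water, then inoculated with powdery mildew 1 day after application. Incubation was at 20° C, 60% rh, 24 h dark then 12 h light/12 h dark. Percent disease control versus untreated was scored 6-8 days after application.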

[2] = system: Phakopsora pachyrhizi; assay: Phakopsora pachyrhizi / soybean / preventative (soybean rust); conditions: foliar, soybean leaf disks, inoculated one day after application, assessed 12-14 days after application, read-out: control of Phakopsora pachyrhizi (percent disease control compared to untreated)
Method: Phakopsora pachyrhizi/Soybean/Preventative (Soybean Rust) Soybean leaf disks are placed on water agar in multiwell plates (24-well format) and sprayed with the formulated test compound diluted in water. One day after application leaf discs are inoculated by spraying a spore suspension on the lower leaf surface. After an incubation period in a climate cabinet of 24-36 hours in darkness at 20° C. and 75% rh leaf disc are kept at 20° C. with 12 h light/day and 75% rh. The activity of a compound is assessed as percent disease control compared to untreated when an appropriate level of disease damage appears in untreated check leaf disks (12-14 days after application).

[3] = system: Puccinia recondita f. sp. tritici; assay: Puccinia recondita f. sp. tritici / wheat / leaf disc curative (brown rust); conditions: foliar, wheat leaf segments cv. Kanzler, compound applied 1 day after inoculation, assessed 6-8 days after application, read-out: control of Puccinia recondita f. sp. tritici (percent disease control compared to untreated)
Outline: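 Curative test: leaf segments of wheat cv. Kanzler on agar were inoculated with spores and held dark at 19 °C, 75% rh; formulated compound in water was applied 1 day after inoculation. Segments were then kept at 19 °C, 75% rh under 12 h light/12 h dark, and percent disease control versus untreated was scored 6-8 days after application.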

[4] = system: Puccinia recondita f. sp. tritici; assay: Puccinia recondita f. sp. tritici / wheat / leaf disc preventative (brown rust); conditions: foliar, wheat leaf segments cv. Kanzler, inoculated 1 day after application, assessed 7-9 days after application, read-out: control of Puccinia recondita f. sp. tritici (percent disease control compared to untreated)
Outline: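 Leaf segments of wheat cv. Kanzler on agar were sprayed with diluted formulated compound and inoculated with spores 1 day later. Kept at 19° C, 75% rh, 12 h light/12 h dark. Percent disease control versus untreated assessed 7-9 days after application.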

Measured: pest or weed control at 200 ppm

CCN(C)/C=N/c1cc(OC)c(C(O)(CON=C(C)C)C(F)(F)F)cc1C (stereo not shown) [E.036, N-ethyl-N′-[5-methoxy-2-methyl-4-[2,2,2-trifluoro-1-hydroxy-1-[(isopropylideneamino)oxymethyl]ethyl]phenyl]-N-methyl-formamidine]
≥ 80%: all assays above

CCCOCCC(O)(c1cc(C)c(/N=C/N(C)CC)cc1OC)C(F)(F)F (stereo not shown) [E.052, N-ethyl-N′-[4-[1-hydroxy-3-propoxy-1-(trifluoromethyl)propyl]-5-methoxy-2-methyl-phenyl]-N-methyl-formamidine]
≥ 80%: all assays above

CCOC1CCC(C(O)(c2cc(C)c(/N=C/N(C)CC)cc2OC)C(F)(F)F)CC1 (stereo not shown) [E.080, N′-[4-[1-(4-ethoxycyclohexyl)-2,2,2-trifluoro-1-hydroxy-ethyl]-5-methoxy-2-methyl-phenyl]-N-ethyl-N-methyl-formamidine]
≥ 80%: all assays above

CCN(C)/C=N/c1cc(OC)c(C(O)(COCC(C)C)C(F)(F)F)cc1C (stereo not shown) [E.046, N-ethyl-N′-[5-methoxy-2-methyl-4-[2,2,2-trifluoro-1-hydroxy-1-(isobutoxymethyl)ethyl]phenyl]-N-methyl-formamidine]
≥ 80%: all assays above

CCN(C)/C=N/c1cc(OC)c(C(O)(COCCc2ccccc2)C(F)(F)F)cc1C (stereo not shown) [E.021, N-ethyl-N′-[5-methoxy-2-methyl-4-[2,2,2-trifluoro-1-hydroxy-1-(2-phenylethoxymethyl)ethyl]phenyl]-N-methyl-formamidine]
≥ 80%: all assays above

CCOCCOCC(O)(c1cc(C)c(/N=C/N(C)CC)cc1OC)C(F)(F)F (stereo not shown) [E.020, N′-[4-[1-(2-ethoxyethoxymethyl)-2,2,2-trifluoro-1-hydroxy-ethyl]-5-methoxy-2-methyl-phenyl]-N-ethyl-N-methyl-formamidine]
≥ 80%: all assays above

CCCCOCC(O)(c1cc(C)c(/N=C/N(C)CC)cc1OC)C(F)(F)F (stereo not shown) [E.013, N′-[4-[1-(butoxymethyl)-2,2,2-trifluoro-1-hydroxy-ethyl]-5-methoxy-2-methyl-phenyl]-N-ethyl-N-methyl-formamidine]
≥ 80%: all assays above

CCCOC1CCC(C(O)(c2cc(C)c(/N=C/N(C)CC)cc2OC)C(F)(F)F)CC1 (stereo not shown) [E.079, N-ethyl-N′-[5-methoxy-2-methyl-4-[2,2,2-trifluoro-1-hydroxy-1-(4-propoxycyclohexyl)ethyl]phenyl]-N-methyl-formamidine]
≥ 80%: all assays above

CC#CCOCC(O)(c1cc(C)c(/N=C/N(C)CC)cc1OC)C(F)(F)F (stereo not shown) [E.040, N′-[4-[1-(but-2-ynoxymethyl)-2,2,2-trifluoro-1-hydroxy-ethyl]-5-methoxy-2-methyl-phenyl]-N-ethyl-N-methyl-formamidine]
≥ 80%: all assays above

CCN(C)/C=N/c1cc(OC)c(C(O)(COC(C)c2ccccc2)C(F)(F)F)cc1C (stereo not shown) [E.028, N-ethyl-N′-[5-methoxy-2-methyl-4-[2,2,2-trifluoro-1-hydroxy-1-(1-phenylethoxymethyl)ethyl]phenyl]-N-methyl-formamidine]
≥ 80%: all assays above
